In patent US20220226480A1, “LIPID CONJUGATE PREPARED FROM SCAFFOLD MOIETY” (Integrated Nanotherapeutics Inc., priority 2019, published 2022):

Tests used:
[1] = Particle size and polydispersity of LNP containing pro-drug (dynamic light scattering); format: physicochemical; parameters: Size of LNP: unit not given here; details: for Particle Diameter (nm) / Polydispersity index (PDI): LNP containing 10 mol % conjugate, primary PC-lipid DMPC
Experimental: (§1) LNPs were prepared by dissolving 1,2-Distearoyl-sn-glycero-3-phosphocholine (DSPC) or 1,2-dimyristoyl-sn-glycero-3-phosphocholine (DMPC), cholesterol and 1,2-Distearoyl-sn-glycero-3-phosphoethanolamine-Poly(ethylene glycol) (PEG-DSPE) in ethanol. DSPC, DMPC and PEG-DSPE were purchased from Avanti Polar Lipids (Alabaster, Ala.), and cholesterol was obtained from Sigma (St Louis, Mo.).
(§2) Drug-lipid-conjugates INT-D034, INT-D035, INT-D045, INT-D046, INT-D047, INT-D048, INT-D049, INT-D050, INT-D051, INT-D053, INT-D060, INT-D061, INT-D062, INT-D063, INT-D083, INT-D085, INT-D086, INT-D088 and INT-D089 (see FIG. 3 and Example 7 for structures) were dissolved in isopropanol or THF. LNP were prepared by rapidly mixing DSPC or DMPC, cholesterol, drug-lipid conjugate, and PEG-DSPE (in molar ratio of 49/40/10/1) with phosphate-buffered saline (PBS) using a cross-junction mixer. Formulations were dialyzed against PBS to remove residual ethanol. In formulation$ with more than 10 mol % drug-lipid conjugates, the amount of phospholipid or cholesterol was reduced accordingly.
(§3) The physiochemical properties of the LNPs prepared as described above were subsequently characterized. Particle size was determined by dynamic light scattering using a Malvern Zetasizer Nano ZS (Malvern, UK) following buffer exchange into phosphate-buffered saline. Number-weighted size and distribution date was used. Lipid concentrations were determined by measuring total cholesterol using the Cholesterol E enzymatic assay kit from Wako Chemicals USA (Richmond, Va.). The morphology of LNP formulations containing LD-DEX was analyzed by cryogenic-transmission electron microscopy (cryoTEM).

[2] = Encapsulation efficiency / incorporation of pro-drug in LNP; format: physicochemical; details: for Encapsulation Efficiency (%): LNP containing 10 mol % conjugate; for % Entrapment: LNP formulations containing pro-drugs (10 mol %, FIG. 6A)
Experimental: as §1, §2, §3

[3] = LNP formulations containing pro-drugs (10 mol %, FIG. 6A)
[4] = LNP, pro-drug concentration 50 %
[5] = LNP, pro-drug concentration 60 %
[6] = LNP, pro-drug concentration 80 %
[7] = LNP, pro-drug concentration 98 %
[8] = LNP, pro-drug concentration 99 %
[9] = LNP, pro-drug concentration 10 %
[10] = LNP, pro-drug concentration 20 %

PdI [1, 9] | Size (nm) [1, 9] [nm] | PdI [1, 10] | Size (nm) [1, 10] [nm] | SMILES | Particle Diameter (nm) [1] [nm] | Polydispersity index (PDI) [1] | PdI [1, 3] | Size of LNP [1, 3] | Encapsulation Efficiency (%) ([2]; primary PC-lipid DMPC) | % Entrapment [2] [%] | PdI [1, 5] | Size (nm) [1, 5] [nm] | PdI [1, 6] | Size (nm) [1, 6] [nm] | PdI [1, 7] | Size (nm) [1, 7] [nm] | PdI [1, 8] | Size (nm) [1, 8] [nm] | also measured
 |  |  |  | CCCCCCCCCCCC(=O)O[C@@H](C/C=C\CCCCCCCCOC(=O)CCC(=O)OCC(=O)[C@@]1(O)[C@H](C)C[C@H]2[C@@H]3CCC4=CC(=O)C=C[C@]4(C)[C@@]3(F)[C@@H](O)C[C@@]21C)CCCCCC [INT-D046, (R,Z)-12-(dodecanoyloxy)octadec-9-en-1-yl (2-((8S,9R,10S,11S,13S,14S,16R,17R)-9-fluoro-11,17-dihydroxy-10,13,16-trimethyl-3-oxo-6,7,8,9,10,11,12,13,14,15,16,17-dodecahydro-3H-cyclopenta[a]phenanthren-17-yl)-2-oxoethyl) succinate] | 69 | 0.04 | 0.08 | 64 | 93 | 100 |  |  |  |  |  |  |  |  | 
 |  |  |  | CC/C=C\C/C=C\C/C=C\CCCCCCCC(=O)O[C@@H](C/C=C\CCCCCCCCOC(=O)CCC(=O)OCC(=O)[C@@]1(O)[C@H](C)C[C@H]2[C@@H]3CCC4=CC(=O)C=C[C@]4(C)[C@@]3(F)[C@@H](O)C[C@@]21C)CCCCCC [INT-D049, 2-((8S,9R,10S,11S,13S,14S,16R,17R)-9-fluoro-11,17-dihydroxy-10,13,16-trimethyl-3-oxo-6,7,8,9,10,11,12,13,14,15,16,17-dodecahydro-3H-cyclopenta[a]phenanthren-17-yl)-2-oxoethyl ((R,Z)-12-(linolenoyloxy)octadec-9-en-1-yl) succinate] | 68 | 0.05 | 0.11 | 65 | 94 | 100 | 0.02 | 61 | 0.03 | 92 | 0.05 | 69 | 0.03 | 103 | PdI [1, 4]: 0.05; Size (nm) [1, 4]: 44 nm; Encapsulation Efficiency (%) ([2]; primary PC-lipid DSPC): 100%
 |  |  |  | CCCCCCCCCCCCCCCCCC(=O)O[C@@H](C/C=C\CCCCCCCCOC(=O)CCC(=O)OCC(=O)[C@@]1(O)[C@H](C)C[C@H]2[C@@H]3CCC4=CC(=O)C=C[C@]4(C)[C@@]3(F)[C@@H](O)C[C@@]21C)CCCCCC [INT-D050, 2-((8S,9R,10S,11S,13S,14S,16R,17R)-9-fluoro-11,17-dihydroxy-10,13,16-trimethyl-3-oxo-6,7,8,9,10,11,12,13,14,15,16,17-dodecahydro-3H-cyclopenta[a]phenanthren-17-yl)-2-oxoethyl ((R,Z)-12-(stearoyloxy)octadec-9-en-1-yl) succinate] | 61 | 0.04 | 0.05 | 60 | 97 | 90 |  |  | 0.01 | 101 | 0.02 | 61 | 0.01 | 105 | 
 |  |  |  | CCCCC/C=C\C/C=C\C/C=C\C/C=C\CCCC(=O)O[C@@H](C/C=C\CCCCCCCCOC(=O)CCC(=O)OCC(=O)[C@@]1(O)[C@H](C)C[C@H]2[C@@H]3CCC4=CC(=O)C=C[C@]4(C)[C@@]3(F)[C@@H](O)C[C@@]21C)CCCCCC [INT-D051, 2-((8S,9R,10S,11S,13S,14S,16R,17R)-9-fluoro-11,17-dihydroxy-10,13,16-trimethyl-3-oxo-6,7,8,9,10,11,12,13,14,15,16,17-dodecahydro-3H-cyclopenta[a]phenanthren-17-yl)-2-oxoethyl ((R,Z)-12-(arachidonoyloxy)octadec-9-en-1-yl) succinate] | 65 | 0.03 | 0.04 | 61 | 84 | 100 |  |  | 0.02 | 87 | 0.04 | 56 | 0.01 | 93 | Encapsulation Efficiency (%) ([2]; primary PC-lipid DSPC): 100%
0.061 | 44 | 0.065 | 39 | CCCCC/C=C\C/C=C\CCCCCCCC(=O)O[C@@H](C/C=C\CCCCCCCCOC(=O)c1ccccc1OC(C)=O)CCCCCC [INT-D061] |  |  |  |  |  |  | 0.186 | 72 | 0.089 | 82 |  |  | 0.045 | 123 | 
0.085 | 42 | 0.072 | 39 | CCCCCC[C@H](C/C=C\CCCCCCCCOC(=O)CC/C(C)=C/Cc1c(O)c2c(c(C)c1OC)COC2=O)OC(=O)CCCCC [INT-D062, (12R)-Hexanoyloxyoleyl (E) 6-(4-hydroxy-6-methoxy-7-methyl-3-oxo-1,3-dihydroisobenzofuran-5-yl)-4-methylhex-4-enoate] |  |  |  |  |  |  | 0.212 | 70 | 0.021 | 68 |  |  | 0.019 | 93 | 
0.069 | 41 | 0.056 | 41 | CCCCC/C=C\C/C=C\CCCCCCCC(=O)O[C@@H](C/C=C\CCCCCCCCOC(=O)CC/C(C)=C/Cc1c(O)c2c(c(C)c1OC)COC2=O)CCCCCC [INT-D063, (12R)-Linoleoyloxyoleyl (E)-6-(4-hydroxy-6-methoxy-7-methyl-3-oxo-1,3-dihydroisobenzofuran-5-yl)-4-methylhex-4-enoate] |  |  |  |  |  |  | 0.149 | 57 | 0.031 | 91 |  |  | 0.028 | 119 | 
 |  |  |  | CCCCC/C=C\C/C=C\CCCCCCCC(=O)O[C@@H](C/C=C\CCCCCCCC(=O)OCC(=O)[C@@]1(O)[C@H](C)C[C@H]2[C@@H]3CCC4=CC(=O)C=C[C@]4(C)[C@@]3(F)[C@@H](O)C[C@@]21C)CCCCCC [INT-D089, 2-((8S,9R,10S,11S,13S,14S,16R,17R)-9-Fluoro-11,17-dihydroxy-10,13,16-trimethyl-3-oxo-6,7,8,9,10,11,12,13,14,15,16,17-dodecahydro-3H-cyclopenta[a]phenanthren-17-yl)-2-oxoethyl (R,Z)-12-linoleoyloxyoleate] |  |  | 0.07 | 41 |  | 100 |  |  |  |  |  |  |  |  | 

SMILES | PdI [1, 9] | Size (nm) [1, 9] [nm] | PdI [1, 10] | Size (nm) [1, 10] [nm] | Particle Diameter (nm) [1] [nm] | Polydispersity index (PDI) [1] | PdI [1, 3] | Size of LNP [1, 3] | Encapsulation Efficiency (%) ([2]; primary PC-lipid DMPC) | % Entrapment [2] [%] | PdI [1, 5] | Size (nm) [1, 5] [nm] | PdI [1, 6] | Size (nm) [1, 6] [nm] | PdI [1, 7] | Size (nm) [1, 7] [nm] | PdI [1, 8] | Size (nm) [1, 8] [nm] | also measured
CCCCCC[C@H](C/C=C\CCCCCCCCOC(=O)c1ccccc1OC(C)=O)OC(=O)CCCCC [INT-D060, (R,Z)-12-Hexanoyloxyoctadec-9-en-1-yl 2-acetoxybenzoate] | 0.06 | 46 | 0.116 | 42 |  |  |  |  |  |  | 0.216 | 71 | 0.042 | 67 |  |  | 0.034 | 98 | 
CCCCCCCCC(OC(=O)CCCCC)C(CCCCCCCC(=O)OCC(=O)[C@@]1(O)[C@H](C)C[C@H]2[C@@H]3CCC4=CC(=O)C=C[C@]4(C)[C@@]3(F)[C@@H](O)C[C@@]21C)OC(=O)CCCCC (stereo partly drawn) [INT-D085, 1-(2-((8S,9R,10S,11S,13,14S,16R,17R)-9-Fluoro-11,17-dihydroxy-10,13,16-trimethyl-3-oxo-6,7,8,9,10,11,12,13,14,15,16,17-dodecahydro-3H-cyclopenta[a]phenanthren-17-yl)-2-oxoethoxy)-1-oxooctadecane-9,10-diyl dihexanoate] | 0.064 | 42 | 0.075 | 39 |  |  | 0.06 | 42 |  | 100 | 0.059 | 56 | 0.034 | 124 |  |  | 0.006 | 135 | 
